Measured values taken from the NIST ThermoML archive (doi:10.1021/je200659c).

What was measured:
[1] = xn = mol fraction of the nth substance listed; details: Maximal bubble pressure
[2] = Maximal bubble pressure

COS(=O)(=O)[O-].Cn1cc[n+](C)c1 [1,3-dimethylimidazolium methylsulfate] + O
[1]
Details | surface tension liquid-gas [mN/m]
297 K, x1 = 0.008 | 70.6
297.1 K, x1 = 0.025 | 69.5
297.3 K, x1 = 0.055 | 68.2
297.6 K, x1 = 0.093 | 67.3
297.6 K, x1 = 0.141 | 66.4
297.7 K, x1 = 0.183 | 65.7
298 K, x1 = 0.222 | 65.3
298.1 K, x1 = 0.261 | 64.7
298.1 K, x1 = 0.292 | 64.7

CCCCn1cc[n+](C)c1.CS(=O)(=O)[O-] [1-butyl-3-methylimidazolium methanesulfonate] + O
[1]
Details | surface tension liquid-gas [mN/m]
297.5 K, x1 = 0.004 | 65.1
297.7 K, x1 = 0.014 | 62.9
297.8 K, x1 = 0.026 | 59.6
297.8 K, x1 = 0.064 | 53.6
298 K, x1 = 0.115 | 50.3
298 K, x1 = 0.256 | 45.9
298.2 K, x1 = 0.173 | 48.2
298.2 K, x1 = 0.24 | 46.7
298.2 K, x1 = 0.291 | 45.1
304.7 K, x1 = 0.005 | 66.3
304.8 K, x1 = 0.177 | 47.9
304.9 K, x1 = 0.011 | 63.5
305.1 K, x1 = 0.109 | 50.8
305.1 K, x1 = 0.141 | 49.5
305.1 K, x1 = 0.16 | 48.5
305.2 K, x1 = 0.017 | 61.3
305.2 K, x1 = 0.08 | 52.4
305.3 K, x1 = 0.052 | 55.3
305.4 K, x1 = 0.027 | 59.2
312.2 K, x1 = 0.092 | 51.4
312.2 K, x1 = 0.184 | 47.8
312.3 K, x1 = 0.145 | 49.4
312.4 K, x1 = 0.069 | 53.2
312.6 K, x1 = 0.005 | 65.3
312.6 K, x1 = 0.019 | 60.3
312.8 K, x1 = 0.01 | 62.9
312.8 K, x1 = 0.041 | 56.3
318.1 K, x1 = 0.339 | 44.2
318.3 K, x1 = 0.259 | 45.5
318.7 K, x1 = 0.165 | 47.7
320.1 K, x1 = 0.034 | 56.1
320.1 K, x1 = 0.083 | 51.4
320.8 K, x1 = 0.023 | 58.2
321.3 K, x1 = 0.013 | 61
321.8 K, x1 = 0.004 | 64.8

CCn1cc[n+](C)c1.CS(=O)(=O)[O-] [1-ethyl-3-methylimidazolium methanesulfonate] + O
[1]
Details | surface tension liquid-gas [mN/m]
300 K, x1 = 0.002 | 72.1
300 K, x1 = 0.03 | 69.8
300.1 K, x1 = 0.025 | 70.4
300.2 K, x1 = 0.004 | 71.6
300.2 K, x1 = 0.006 | 71.4
300.3 K, x1 = 0.01 | 71.1
300.4 K, x1 = 0.015 | 70.7
300.4 K, x1 = 0.019 | 70.5
301 K, x1 = 0.065 | 67.9
301.2 K, x1 = 0.274 | 60.7
301.3 K, x1 = 0.002 | 71.4
301.3 K, x1 = 0.004 | 70.9
301.3 K, x1 = 0.007 | 70.4
301.3 K, x1 = 0.013 | 69.8
301.3 K, x1 = 0.019 | 69.2
301.3 K, x1 = 0.026 | 68.8
301.3 K, x1 = 0.032 | 68.4
301.3 K, x1 = 0.376 | 59.2
301.4 K, x1 = 0.01 | 70.1
301.7 K, x1 = 0.112 | 65.6
301.7 K, x1 = 0.485 | 58.1
302.4 K, x1 = 0.08 | 66
302.7 K, x1 = 0.133 | 63.5
302.7 K, x1 = 0.181 | 62.9
302.9 K, x1 = 0.199 | 61.2
303.2 K, x1 = 0.474 | 57.3
303.3 K, x1 = 0.388 | 57.7
303.8 K, x1 = 0.284 | 58.7

CCCCCCn1cc[n+](C)c1.[Cl-] [1-hexyl-3-methylimidazolium chloride] + O
[1]
Details | surface tension liquid-gas [mN/m]
297.2 K, x1 = 0.003 | 61.8
297.4 K, x1 = 0.009 | 55.2
297.4 K, x1 = 0.02 | 50.5
297.6 K, x1 = 0.045 | 47.6
297.7 K, x1 = 0.013 | 52.8
297.8 K, x1 = 0.073 | 46
297.9 K, x1 = 0.121 | 43.8
298 K, x1 = 0.092 | 45
298.2 K, x1 = 0.143 | 43.2

O [water]
[2]
Details | surface tension liquid-gas [mN/m]
296.8 K | 71.1
297 K | 71.9
297.7 K | 70.9
300 K | 71.6
301.2 K | 71.4
304.3 K | 70.7
312.4 K | 69.4
321.3 K | 68.1

O [water] + CCCCCCn1cc[n+](C)c1.[Cl-]
Details | surface tension liquid-gas [mN/m]
[1], 297.7 K, x2 = 0 | 70.9

O [water] + CCCCn1cc[n+](C)c1.CS(=O)(=O)[O-]
[1], x2 = 0
Details | surface tension liquid-gas [mN/m]
297 K | 71.9
304.3 K | 70.7
312.4 K | 69.4
321.3 K | 68.1

O [water] + CCn1cc[n+](C)c1.CS(=O)(=O)[O-]
[1], x2 = 0
Details | surface tension liquid-gas [mN/m]
300 K | 71.6
301.2 K | 71.4

O [water] + COS(=O)(=O)[O-].Cn1cc[n+](C)c1
Details | surface tension liquid-gas [mN/m]
[1], 296.8 K, x2 = 0 | 71.1
